From patent US20220323445A1, “REDUCING IMMUNOGENICITY TO PEGLOTICASE” (Horizon Therapeutics Ireland DAC, priority 2020, published 2022)
Like-named read-outs stand apart in the source and are kept apart here.

Columns and labels:
[1] = cited from earlier work
[2] = system: patients with uncontrolled gout
From the text: As used herein, an “adverse event” or “AE” refers to any untoward medical occurrence associated with the use of a drug in humans, whether it is considered drug-related or not. An AE or suspected adverse reaction is considered a “serious adverse event” or “SAE” if, in the view of either the Investigator or Sponsor, it results in any of the following outcomes: (1) Death, (2) Life-threatening: an AE is considered “life-threatening” if, in the view of either the Investigator or Sponsor, its occurrence places the subject or subject at immediate risk of death. […] (5) A congenital anomaly/birth defect; (6) Important medical events that may not result in death, be life-threatening, or require hospitalization may be considered serious when, based upon appropriate medical judgment, they may jeopardize the patient or subject and may require medical or surgical intervention to prevent one of the outcomes listed in this definition.
Safety Variables: Safety was assessed via AE and concomitant medication use monitoring, physical examinations, vital signs, clinical safety laboratory evaluations (hematology, chemistry, urine uric acid:creatinine ratio), pregnancy testing (if applicable), electrocardiograms (ECGs), and AEs of special interest (i.e., IRs, anaphylaxis, gout flares, and cardiovascular events).
AEs of special interest may include IRs, anaphylaxis, gout flares, and cardiovascular events.
Severity in accordance with the disclosure is reported according to the following: Grade 1 (Mild)—No interference with daily activity. Grade 2 (Moderate)—Some interference with daily activity but medical intervention not required (e.g., doctor visit and/or medication); over the counter medicine permitted. Grade 3 (Severe)—Prevents daily activity and requires medical intervention (e.g., doctor visit and/or medication). Grade 4 (Potentially Life-threatening)—Emergency room visit or hospitalization.
An AE was defined as any untoward event, whether or not it was considered related to the use of pegloticase or MTX. Any worsening (i.e., any clinically significant adverse change in frequency or intensity) of a preexisting condition which was temporally associated with the use of pegloticase or MTX was also considered an AE. Abnormal laboratory values or test results constitute AEs only if they induce clinical signs or symptoms or require therapy, and were recorded on the AE CRF under the signs, symptoms or were associated with diagnoses associated with them. Screening conditions were not considered AE; however, worsening of a preexisting condition may be considered an AE. AEs were collected starting at the baseline, Visit 1.
TEAEs during the Pegloticase+IMM Period were defined as events that occur after the start of the first pegloticase infusion through 30 days after the last dose of pegloticase and/or MTX or placebo for MTX (whichever was later). TEAEs that occur during the MTX Tolerability Assessment Period prior to randomization (Weeks −6 to −4) was summarized separately for the MTX population. […] AEs that occur more than 30 days after the last dose of pegloticase and/or MTX or placebo for MTX through the 6-month follow-up visit was also summarized.

[3] = system: patients with uncontrolled gout; experiment: Adverse events of special interest: gout flares during the Methotrexate Run-in Period; assay type: in vivo, human; conditions: for Number of Gout Flares per Subject among subjects with at least one gout flare, Mean / Number of Gout Flares per Subject among subjects with at least one gout flare, Median / Gout Flares, % of subjects / Subjects with 1 gout flare, % / Subjects with 2 gout flares, %: Methotrexate Run-in Period
From the text: As used herein, a “gout flare” refers to a manifestation of physiological or biochemical symptoms of gout, which is a possible side effect or AE associated with treatment with KXX. A gout flare may produce burning itching, tingling, or stiffness in the joints, particularly the peripheral joints. An individual may also experience redness, swelling, and pain in the joints. In accordance with the disclosure, gout flares may initially increase when starting treatment with KXX. For such individuals, medications to help reduce flares may be taken regularly for the first few months after KXX is started. […] In some embodiments, gout flare prophylaxis may include, but is not limited to, In some embodiments, prophylactic treatment may be given prior to an infusion of KXX, for example one week prior to treatment with KXX.
Gout Flare Treatment—An increase in gout flares was frequently observed upon initiation of anti-hyperuricemic therapy, including treatment with pegloticase. Participants were instructed to contact the site within 12 hours of the onset of symptoms. Gout flares were confirmed through questioning or direct observation. All participants who experience a gout flare during the study were prescribed anti-inflammatory treatment (e.g., corticosteroids, NSAIDs, colchicine) as deemed clinically indicated by the study physician.

CN(Cc1cnc2nc(N)nc(N)c2n1)c1ccc(C(=O)N[C@@H](CCC(=O)O)C(=O)O)cc1 [MTX, methotrexate]
(53.8) %: Any Gout Flares Since the Last Visit, % ([3]; Week −4, mITT, 13 assessed)
12%: Nausea and vomiting ([1]; RA)
1.0 Events/PY of MTX: Chronic Sinusitis, Incidence Rate ([2]; mITT N = 14, PY of MTX = 1.0) | Cough, Incidence Rate ([2]; mITT N = 14, PY of MTX = 1.0) | Dental Caries, Incidence Rate ([2]; mITT N = 14, PY of MTX = 1.0) | Diarrhoea, Incidence Rate ([2]; mITT N = 14, PY of MTX = 1.0) | Dry Eye, Incidence Rate ([2]; mITT N = 14, PY of MTX = 1.0) | Eye Disorders, Incidence Rate ([2]; mITT N = 14, PY of MTX = 1.0) | Headache, Incidence Rate ([2]; mITT N = 14, PY of MTX = 1.0) | Leukopenia, Incidence Rate ([2]; mITT N = 14, PY of MTX = 1.0) | Nasopharyngitis, Incidence Rate ([2]; mITT N = 14, PY of MTX = 1.0) | Nervous System Disorders, Incidence Rate ([2]; mITT N = 14, PY of MTX = 1.0) | Neutropenia, Incidence Rate ([2]; mITT N = 14, PY of MTX = 1.0) | Pruritus, Incidence Rate ([2]; mITT N = 14, PY of MTX = 1.0) | Respiratory, Thoracic And Mediastinal Disorders, Incidence Rate ([2]; mITT N = 14, PY of MTX = 1.0) | Skin And Subcutaneous Tissue Disorders, Incidence Rate ([2]; mITT N = 14, PY of MTX = 1.0)
3%: neoplasia (other than lymphoma) ([1]; renal transplant)
20%: Increased susceptibility to infection ([1]; renal transplant)
4: Maximum Reported Intensity of Flare (0-10 scale), Min ([3]; Day 1, ITT) | Maximum Reported Intensity of Flare (0-10 scale), Min ([3]; Day 1, mITT)
(57.1) %: Any Gout Flares Since the Last Visit, % ([3]; Day 1, ITT, 14 assessed) | Pain at rest >3 out of 10, % ([3]; Day 1, ITT, 14 assessed) | Any Gout Flares Since the Last Visit, % ([3]; Day 1, mITT, 14 assessed) | Pain at rest >3 out of 10, % ([3]; Day 1, mITT, 14 assessed) | Any Gout Flares Since the Last Visit, % ([3]; Week −4, ITT, 14 assessed)
0.9 Events/PY of MTX: Chronic Sinusitis, Incidence Rate ([2]; ITT N = 15, PY of MTX = 1.1) | Cough, Incidence Rate ([2]; ITT N = 15, PY of MTX = 1.1) | Dental Caries, Incidence Rate ([2]; ITT N = 15, PY of MTX = 1.1) | Diarrhoea, Incidence Rate ([2]; ITT N = 15, PY of MTX = 1.1) | Dry Eye, Incidence Rate ([2]; ITT N = 15, PY of MTX = 1.1) | Eye Disorders, Incidence Rate ([2]; ITT N = 15, PY of MTX = 1.1) | Headache, Incidence Rate ([2]; ITT N = 15, PY of MTX = 1.1) | Leukopenia, Incidence Rate ([2]; ITT N = 15, PY of MTX = 1.1) | Nasopharyngitis, Incidence Rate ([2]; ITT N = 15, PY of MTX = 1.1) | Nervous System Disorders, Incidence Rate ([2]; ITT N = 15, PY of MTX = 1.1) | Neutropenia, Incidence Rate ([2]; ITT N = 15, PY of MTX = 1.1) | Pruritus, Incidence Rate ([2]; ITT N = 15, PY of MTX = 1.1) | Respiratory, Thoracic And Mediastinal Disorders, Incidence Rate ([2]; ITT N = 15, PY of MTX = 1.1) | Skin And Subcutaneous Tissue Disorders, Incidence Rate ([2]; ITT N = 15, PY of MTX = 1.1)
2.0 Events/PY of MTX: Abdominal Discomfort, Incidence Rate ([2]; mITT N = 14, PY of MTX = 1.0) | Blood And Lymphatic System Disorders, Incidence Rate ([2]; mITT N = 14, PY of MTX = 1.0) | Infections And Infestations, Incidence Rate ([2]; mITT N = 14, PY of MTX = 1.0) | Nausea, Incidence Rate ([2]; mITT N = 14, PY of MTX = 1.0)
5.5: Maximum Reported Intensity of Flare (0-10 scale), Median ([3]; Day 1, ITT) | Maximum Reported Intensity of Flare (0-10 scale), Median ([3]; Day 1, mITT)
2: Infections And Infestations, Total Events [2] | Infections And Infestations, Total Events ([2]; mITT N = 14)
20.0 Events/PY of MTX: Any TEAEs, Incidence Rate ([2]; mITT N = 14, PY of MTX = 1.0)
(50.0) %: Pain different than normal, % ([3]; Day 1, ITT, 14 assessed) | Pain different than normal, % ([3]; Day 1, mITT, 14 assessed) | Pain at rest >3 out of 10, % ([3]; Week −4, ITT, 14 assessed) | Swelling in Joints, % ([3]; Week −4, ITT, 14 assessed)
(42.9) %: Swelling in Joints, % ([3]; Day 1, ITT, 14 assessed) | Swelling in Joints, % ([3]; Day 1, mITT, 14 assessed) | Pain different than normal, % ([3]; Week −4, ITT, 14 assessed)
1.8 Events/PY of MTX: Infections And Infestations, Incidence Rate [2] | Abdominal Discomfort, Incidence Rate ([2]; ITT N = 15, PY of MTX = 1.1) | Blood And Lymphatic System Disorders, Incidence Rate ([2]; ITT N = 15, PY of MTX = 1.1) | Nausea, Incidence Rate ([2]; ITT N = 15, PY of MTX = 1.1)
10: Maximum Reported Intensity of Flare (0-10 scale), Max ([3]; Week −4, ITT) | Maximum Reported Intensity of Flare (0-10 scale), Max ([3]; Week −4, mITT)
6.0 Events/PY of MTX: Gastrointestinal Disorders, Incidence Rate ([2]; mITT N = 14, PY of MTX = 1.0) | Gout, Incidence Rate ([2]; mITT N = 14, PY of MTX = 1.0) | Metabolism And Nutrition Disorders, Incidence Rate ([2]; mITT N = 14, PY of MTX = 1.0)
8.2: Maximum Reported Intensity of Flare (0-10 scale), Mean ([3]; Week −4, mITT)
(38.5) %: Pain different than normal, % ([3]; Week −4, mITT, 13 assessed)
8: Maximum Reported Intensity of Flare (0-10 scale), Max ([3]; Day 1, ITT) | Maximum Reported Intensity of Flare (0-10 scale), Max ([3]; Day 1, mITT)
< 1%: Increased susceptibility to infection ([1]; RA)
1.2: Number of Gout Flares per Subject among subjects with at least one gout flare, Mean ([3]; ITT) | Number of Gout Flares per Subject among subjects with at least one gout flare, Mean ([3]; mITT)
8.0: Maximum Reported Intensity of Flare (0-10 scale), Median ([3]; Week −4, ITT) | Maximum Reported Intensity of Flare (0-10 scale), Median ([3]; Week −4, mITT)
7: Maximum Reported Intensity of Flare (0-10 scale), Min ([3]; Week −4, ITT) | Maximum Reported Intensity of Flare (0-10 scale), Min ([3]; Week −4, mITT)
> 50%: Leukopenia ([1]; renal transplant)
5.8: Maximum Reported Intensity of Flare (0-10 scale), Mean ([3]; Day 1, ITT) | Maximum Reported Intensity of Flare (0-10 scale), Mean ([3]; Day 1, mITT)
(13.3) %: Infections And Infestations, % [2]
28%: Leukopenia ([1]; RA)
(26.7) %: Subjects with 1 gout flare, % ([3]; ITT N = 15)
5.5 Events/PY of MTX: Gastrointestinal Disorders, Incidence Rate ([2]; ITT N = 15, PY of MTX = 1.1) | Gout, Incidence Rate ([2]; ITT N = 15, PY of MTX = 1.1) | Metabolism And Nutrition Disorders, Incidence Rate ([2]; ITT N = 15, PY of MTX = 1.1)
(46.2) %: Pain at rest >3 out of 10, % ([3]; Week −4, mITT, 13 assessed) | Swelling in Joints, % ([3]; Week −4, mITT, 13 assessed)
(28.6) %: Subjects with 1 gout flare, % ([3]; mITT N = 14)
(14.3) %: Infections And Infestations, % ([2]; mITT N = 14)
(33.3) %: Gout Flares, % of subjects ([3]; ITT N = 15)
(6.7) %: Blood And Lymphatic System Disorders, % ([2]; ITT N = 15) | Chronic Sinusitis, % ([2]; ITT N = 15) | Cough, % ([2]; ITT N = 15) | Dental Caries, % ([2]; ITT N = 15) | Diarrhoea, % ([2]; ITT N = 15) | Dry Eye, % ([2]; ITT N = 15) | Eye Disorders, % ([2]; ITT N = 15) | Headache, % ([2]; ITT N = 15) | Leukopenia, % ([2]; ITT N = 15) | Nasopharyngitis, % ([2]; ITT N = 15) | Nervous System Disorders, % ([2]; ITT N = 15) | Neutropenia, % ([2]; ITT N = 15) | Pruritus, % ([2]; ITT N = 15) | Respiratory, Thoracic And Mediastinal Disorders, % ([2]; ITT N = 15) | Skin And Subcutaneous Tissue Disorders, % ([2]; ITT N = 15) | Subjects with 2 gout flares, % ([3]; ITT N = 15)
(35.7) %: Gout Flares, % of subjects ([3]; mITT N = 14)
0.5%: neoplasia (lymphoma) ([1]; renal transplant)
1.0: Number of Gout Flares per Subject among subjects with at least one gout flare, Median ([3]; ITT) | Number of Gout Flares per Subject among subjects with at least one gout flare, Median ([3]; mITT)
8.5: Maximum Reported Intensity of Flare (0-10 scale), Mean ([3]; Week −4, ITT)
(7.1) %: Blood And Lymphatic System Disorders, % ([2]; mITT N = 14) | Chronic Sinusitis, % ([2]; mITT N = 14) | Cough, % ([2]; mITT N = 14) | Dental Caries, % ([2]; mITT N = 14) | Diarrhoea, % ([2]; mITT N = 14) | Dry Eye, % ([2]; mITT N = 14) | Eye Disorders, % ([2]; mITT N = 14) | Headache, % ([2]; mITT N = 14) | Leukopenia, % ([2]; mITT N = 14) | Nasopharyngitis, % ([2]; mITT N = 14) | Nervous System Disorders, % ([2]; mITT N = 14) | Neutropenia, % ([2]; mITT N = 14) | Pruritus, % ([2]; mITT N = 14) | Respiratory, Thoracic And Mediastinal Disorders, % ([2]; mITT N = 14) | Skin And Subcutaneous Tissue Disorders, % ([2]; mITT N = 14) | Subjects with 2 gout flares, % ([3]; mITT N = 14)
